Source: patent publication US9410152B2, “Use of microrna molecules to influence skin pigmentation” (CHANEL PARFUMS BEAUTE, priority 2011, dated 2016)
“Also recorded” adds a separate entry of the source.

How the values were obtained:
Format in all cases: cell-based, human
[1] = test system: MNT-1 cells; assay: Measurement of the relative melanin concentration (absorbance at 470 nm of protein lysates); conditions: 50 nM mimetic, day 12, relative to transfection control cel-miR-239b (miCtrl), normalized to protein
Method: (§1) 4×10^5 MNT-1 cells were seeded per well in a 6-well plate (#353046, Falcon) on day-1. On day 0, the cells were transfected with 50 nM of mimetic of the miRNAs (hsa-mir-137 # C-300604-07-005, hsa-mir-7 # C-300547-05-0005, hsa-mir-330-5p # C-301082-01-0005, negative control # NC-002000-01-05, Dharmacon), using 5 μL of Lipofectamine 2000 (#1668-019, Invitrogen). On day 1, the medium was changed. On day 3, the cells were trypsinized and seeded at 4×10^5 cells per well. On day 4, the cells were transfected again with 50 nM of mimetic of the miRNAs (see day 0). On day 5, the medium was changed. On day 7, the cells were trypsinized and seeded at 4×10^5 cells per well. On day 8, the cells were transfected with 50 nM of mimetic of the miRNAs (see day 0). On day 9, the medium was changed. On day 10, the cells were trypsinized and divided into two (from one by six wells to two by six wells). On day 12, one six-well plate was used for lysis of the RNA and the other for lysis of the proteins. As positive control of depigmentation, MNT-1 cells were incubated with 3.5 mM of kojic acid (Sigma K3125-5G) for 12 days. The cells were distributed as described and the kojic acid was renewed with the medium every 4 days. The percentage inhibition of the kojic acid is of the order of 10%.
On day 12, the cells were washed in PBS twice and lysed in 75 μL/well of a 6-well dish of lysis buffer for the RIPA proteins. The protein lysates were transferred to 1.5-ml Eppendorf tubes and vortexed lightly to homogenize the solution before putting the tube on ice or for storage at −80° C. 2 μL of protein lysate was used for measuring the absorbance of the melanin at 470 nm using the NanoVue spectrophotometer (GE Healthcare). The protein lysate of the unpigmented XB2 keratinocytes was used as calibrator sample (reference=0). To detect the relative quantity of melanin, all the samples were compared with the transfection control sample (miCtrl). The absorbance at 470 nm of the sample miCtrl was fixed at 1 as reference. In addition, the melanin absorption at 470 nm was normalized taking into account the concentration of proteins of each sample relative to miCtrl.

[2] = test system: mRNA TYR; assay: qRT-PCR mRNA expression of TYR; conditions: MNT-1 cells, 50 nM mimetic, day 12, relative to cel-miR-239b, ΔΔCt
Method: 4×10^5 MNT-1 cells were seeded per well in a 6-well plate (#353046, Falcon) on day-1. On day 0, the cells were transfected with 50 nM of mimetic of the miRNAs (hsa-mir-137 # C-300604-07-005, hsa-mir-7 # C-300547-05-0005, hsa-mir-330-5p # C-301082-01-0005, negative control # NC-002000-01-05, Dharmacon), using 5 μL of Lipofectamine 2000 (#1668-019, Invitrogen). On day 1, the medium was changed. On day 3, the cells were trypsinized and seeded at 4×10^5 cells per well. On day 4, the cells were transfected again with 50 nM of mimetic of the miRNAs (see day 0). On day 5, the medium was changed. On day 7, the cells were trypsinized and seeded at 4×10^5 cells per well. On day 8, the cells were transfected with 50 nM of mimetic of the miRNAs (see day 0). On day 9, the medium was changed. On day 10, the cells were trypsinized and divided into two (from one by six wells to two by six wells). On day 12, one six-well plate was used for lysis of the RNA and the other for lysis of the proteins. As positive control of depigmentation, MNT-1 cells were incubated with 3.5 mM of kojic acid (Sigma K3125-5G) for 12 days. The cells were distributed as described and the kojic acid was renewed with the medium every 4 days. The percentage inhibition of the kojic acid is of the order of 10%. 700 μL of Qiazol lysis buffer (Qiagen) was added per well of a six-well dish after washing the cells twice with PBS. The total RNA was isolated using the miRNeasy Mini kit (Qiagen) according to the manufacturer's protocol. The total RNA was eluted in 30 μl of water without RNAse. The concentration of RNA was measured using the NanoVue spectrophotometer (GE Healthcare). 1 μg of total RNA was reverse-transcribed using the MLV RT-Enzyme system (Invitrogen) in 60 μL of reaction to produce the corresponding cDNA. Real-time PCR was performed using the IQTM SYBR® Green supermix (Biorad) (final reaction volume of 25 μL: 23 μL of Mix Master and 2 μL of cDNA). The thermocycling conditions ([…], Biorad) were as follows: 95° C. for 90 s, and 40 cycles at 95° C. for 30 s, 60° C. for 60 s and 95° C. for 10 s. The concentrations of primers and the sequences are given in Table 5 below: The relative quantity was evaluated using the ΔΔCt comparative method. Briefly, this method compares the quantity of expression of the target gene relative to an endogenous control TBP, within a sample for normalizing the expression. Within a group of samples, a suitable sample is selected as the calibrator sample ([…]). Each sample is then compared with a designated reference to give the relative expression of the target gene relative to this reference sample.

[3] = test system: MNT-1 cells; assay: Overall pigmentation levels (photographs of protein lysates on day 12); conditions: 50 nM mimetic, 12 days, relative to negative control, photographs not shown
Method: as §1, with “10%. […] The XB2 keratinocytes serve as control for the unpigmented cells. […] As positive control of depigmentation, the MNT-1 cells were treated with kojic acid.” for “10%.”

| Substance | relative levels of melanin (absorbance at 470 nm) [1] | levels of mRNA TYR [2] | overall pigmentation levels [3] | levels of mRNA TYR ([2]; listed as miR-7) | overall pigmentation levels ([3]; listed as miR-7) |
| --- | --- | --- | --- | --- | --- |
| hsa-miR-137: mimetic of miRNA hsa-mir-137 (Dharmacon C-300604-07-005); mature sequence SEQ ID NO: 3 (UUAUUGCUUAAGAAUACGCGUAG; commercial mimic, chemistry not given here; listed as Homo sapiens) | reduction; also recorded: decrease in melanin | decreased; also recorded: significantly reduced | significant reduction | – | – |
| hsa-miR-7: mimetic of miRNA hsa-mir-7 (Dharmacon C-300547-05-0005); mature hsa-miR-7-5p sequence SEQ ID NO: 2 (UGGAAGACUAGUGAUUUUGUUGU; commercial mimic, chemistry not given here; listed as Homo sapiens) | slight increase | decreased | do not show a significant reduction | appears to reduce | do not show any significant effect |
| hsa-miR-330-5p: mimetic of miRNA hsa-mir-330-5p (Dharmacon C-301082-01-0005); mature sequence 5'-UCUCUGGGCCUGUGUCUUAGGC-3' (SEQ ID NO: 1) (UCUCUGGGCCUGUGUCUUAGGC; mimic duplex, passenger strand not given here; listed as Homo sapiens) | reduction; also recorded: decrease in melanin | decreased; also recorded: appears to reduce | significant reduction | – | – |
